Results reported in patent US6790971B1, “19-Nor-steroids” (Aventis Pharma S.A., priority 1989, dated 2004).

How the values were obtained:
[1] = tested on: MCF-7 mammary tumoral cells; experiment: Anti-proliferative activity upon the growth of MCF-7 cells (DNA measurement with DABA); type: cell-based; details: 6 days, inhibition of the increase of DNA, read-out: concentration which inhibited the growth of MCF7 to an extent of 50% (IC50)
Method: B. Anti-proliferative activity of the products of the invention upon the growth of MCF-7 mammary tumoral cells.
The MCF-7 strains were kept under culture in FCS(1) medium at 37° C. under a humid atmosphere containing 5% CO2 and the cells at subconfluence were harvested by trypsination (0.05% trypsine, 0.02% EDTA), then rinsed by gentle centrifugation. A sample of the cells in suspension was counted on Malassez cell.
The cells, resuspended in FCS medium, were seeded at a rate of 30,000 cells per pit in multi-pit plates (24 pits of 2.5 cm^2) and twenty four hours after seeding (DO), the product to be tested was added to the medium in ethanolic solution (final concentration in ethanol: 0.1%), at a concentration of 10^−12 to 10^−6 M, the control pits receiving the same concentration of ethanol. The media were renewed every 48 hours and at the end of the experiment (D6), the medium was sucked off and the cells were immediately fixed with 150 microliters of methanol to estimate the DNA. The anti-proliferative activity of the products was evaluated by their capacity to inhibit the increase of DNA.
The DNA was measured by a fluorimetric method employing DABA (3,5-diaminobenzoic acid) (2): 150 microliters of DABA were added to each of the pits and the plates were then incubated for 45 minutes at 56° C., then 2 ml of 1 N HCl were added. The fluorescence was measured with the aid of a fluorimeter (length of the exiting wave: 408 nm, length of the emitting wave: 501 nm). The quantity of DNA per pit was evaluated with reference to a standard scale obtained by treating a standard DNA from calf thymus under the same conditions.
The concentration in nM which inhibited the growth of MCF7 to an extent of 50% (IC50) was determined in the manner indicated below:
(1) The fetal calf serum (FCS) culture medium was prepared as follows: MEM medium (minimal essential medium) to which were added:
Non-essential amino acids (GIBCO),
Peni-strepto (100 U/ml penicillin, 0.1 mg/ml streptomycin),
Fetal calf serum containing no steroids (10% final concentration).
(2) Puzas and Goodman, Analytical Biochemistry, Vol. 86, pp. 50, 1978.

[2] = target: T1, Androgen Receptor of Rat's Prostate (Rattus norvegicus, UniProt P15207); experiment: Relative affinity of the bond, androgen receptor (tritiated testosterone displacement); type: binding; details: for Relative affinity of the bond (RAB), Androgen, 0.5 H: incubation 0.5 H at 0° C.; for Relative affinity of the bond (RAB), Androgen, 0.5 H / Relative affinity of the bond (RAB), Androgen, 25 H: RAB=100(CH)/(CX); for Relative affinity of the bond (RAB), Androgen, 25 H: incubation 25 H at 0° C.
T1 construct: Their prostates were removed, weighed and homogenized at 0° C; from tissue; host or cells: prostate cytosol (105,000 g supernatant) of castrated male Sprague-Dawley rats
T1 sequence (P15207 1-902): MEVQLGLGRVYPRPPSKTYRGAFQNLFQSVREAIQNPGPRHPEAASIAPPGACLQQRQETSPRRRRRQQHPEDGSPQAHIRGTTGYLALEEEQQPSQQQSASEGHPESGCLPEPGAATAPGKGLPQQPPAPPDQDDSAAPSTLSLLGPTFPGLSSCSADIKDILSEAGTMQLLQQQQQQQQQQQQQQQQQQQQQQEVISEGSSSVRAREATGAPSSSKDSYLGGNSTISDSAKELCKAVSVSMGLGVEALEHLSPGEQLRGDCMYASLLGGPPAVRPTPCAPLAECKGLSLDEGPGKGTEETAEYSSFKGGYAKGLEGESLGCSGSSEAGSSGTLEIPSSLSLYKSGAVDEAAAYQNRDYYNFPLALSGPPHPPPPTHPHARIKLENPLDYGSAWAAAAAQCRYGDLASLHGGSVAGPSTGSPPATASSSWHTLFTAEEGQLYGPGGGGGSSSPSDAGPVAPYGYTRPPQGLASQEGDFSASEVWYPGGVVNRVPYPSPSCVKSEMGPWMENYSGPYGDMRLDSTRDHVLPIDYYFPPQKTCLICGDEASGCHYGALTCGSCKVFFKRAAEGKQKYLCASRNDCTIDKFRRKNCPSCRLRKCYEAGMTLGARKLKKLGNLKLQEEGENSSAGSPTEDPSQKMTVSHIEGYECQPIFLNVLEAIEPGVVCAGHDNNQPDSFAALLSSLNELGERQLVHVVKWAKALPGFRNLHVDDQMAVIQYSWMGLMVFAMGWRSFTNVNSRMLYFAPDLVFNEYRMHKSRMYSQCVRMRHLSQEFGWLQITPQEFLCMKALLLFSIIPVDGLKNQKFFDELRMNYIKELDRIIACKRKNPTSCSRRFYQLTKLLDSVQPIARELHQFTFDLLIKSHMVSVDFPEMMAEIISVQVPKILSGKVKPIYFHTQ
Method: Androgen Receptor of Rat's Prostate:
Male Sprague Dawley EPOS rats weighing 160 to 200 g were castrated and 24 hours after the castration, the animals were killed. Their prostates were removed, weighed and homogenized at 0° C. using a Potter teflon-glass in a TS buffered solution (Tris 10 mM, saccharose 0.25 M, HCl pH 7.4) (1 g of tissue for 5 ml of TS). The homogenate was ultracentrifuged (105,000 g for 60 minutes) at 0° C. and aliquots of the supernatant were incubated at 0° C. for an incubation time E with a constant concentration (T) of tritiated testosterone in the presence of increasing concentrations (0-1000.10^−9 M) either of cold testosterone or of the product to be tested. The concentration of bound tritiated testosterone (B) was then measured in each incubate by the adsorption on dextran carbon technique.
Calculation of the Relative Affinty of the Bond
The calculation of the Relative Affinity of the Bond (RAB) was identical for all the receptors. The following 2 curves were traced; the percentage of the bound tritiated hormone [formula]
was a function of the logarithm of the concentration of the cold reference hormone and [formula]
as a function of the logarithm of the concentration of the cold product tested.
One determined the straight line of the equation [formula]
The intersections of the straight line I50 and of the curves make it possible to evaluate the concentrations of the cold reference hormone (CH) and of the tested cold product (CX) which inhibit to an extend of 50% the binding of the tritiated hormone upon the receptor. The relative affinity of the bond (RAB) of the tested product is determined by the equation

Compound	IC50 [1] [nM]	Relative affinity of the bond (RAB), Androgen, 0.5 H [2]	Relative affinity of the bond (RAB), Androgen, 25 H [2]	affinity for the androgen receptor [2]
CCCCN(C)C(=O)CCCCCCCCCCC[C@H]1C[C@]2(C)[C@@H](O)CC[C@H]2[C@@H]2CCc3cc(O)ccc3[C@@H]12 [Example 24, N-butyl-3,17β-dihydroxy-N-methyl-11β-Δ^1,3,5(10)-estratriene dodecanamide]	0.06	0	0.4	
CC#C[C@]1(O)CC[C@H]2[C@@H]3CCC4=CC(=O)CCC4=C3[C@@H](CCCCCCCCCCC(=O)NCCCC)C[C@@]21C [Example 22, N-butyl-17β-hydroxy-3-oxo-17α-(1-propynyl)-11β-Δ^4,9-estradiene undecanamide]		0.0	0	
CN(C)CCN(C)C(=O)CCCCCCCCCC[C@H]1C[C@]2(C)[C@@H](O)CC[C@H]2[C@@H]2CCC3=CC(=O)CCC3=C12 [Example 19, N-[2-(dimethylamino)-ethyl]-17β-hydroxy-N-methyl-3-oxo-11β-Δ^4,9-estradiene undecanamide]		11	11	moderate affinity
N-butyl-3,17β-dihydroxy-N-methyl-19-nor-11β-Δ^1,3,5(10)-pregnatrien-20-yn undecanamide [Example 21]	0.02	0	0	
CCCCN(C)C(=O)CCCCCCCCCC[C@H]1C[C@]2(C)[C@@H](O)CC[C@H]2[C@@H]2CCc3cc(O)ccc3[C@@H]12 [Example 13, N-Butyl-3,17β-Dihydroxy-N-Methyl-11β-Δ^1,3,5(10)-Estratriene-Undecanamide]	0.5	0	0.12	
CN(Cc1ccccc1)C(=O)CCCCCCCCCC[C@H]1C[C@]2(C)[C@@H](O)CC[C@H]2[C@@H]2CCC3=CC(=O)CCC3=C12 [Example 17, N-benzyl-17β-hydroxy-N-methyl-3-oxo-11β-Δ^4,9-estradiene undecanamide]		0.12	1.2	
CC(C)N(C)C(=O)CCCCCCCCCC[C@H]1C[C@]2(C)[C@@H](O)CC[C@H]2[C@@H]2CCc3cc(O)ccc3[C@@H]12 [Example 16, 3,17β-dihydroxy-N-methyl-N-isopropyl-11β-Δ^1,3,5(10)-estratriene undecanamide]	0.02	0	0.4	
